This note sets out measurements from ChEMBL document CHEMBL2073947, “The human multidrug resistance protein MRP4 functions as a prostaglandin efflux transporter and is inhibited by nonsteroidal antiinflammatory drugs” (Proc Natl Acad Sci U S A, 2003).

The target of data set [1] is Multidrug resistance associated protein (Homo sapiens) (UniProt Q96QA9). Nature of the data set: TP_TRANSPORTER: inhibition of alaninyl-d4TMP by Prostaglandin A1 at a concentration of 20uM in membrane vesicle from MRP3-expressing Sf9 cells. It is filed as functional, cell membranes. The arrangement: scale not given: the % may be the effect or the level left.
Multidrug resistance associated protein (Homo sapiens), sequence (Q96QA9 as listed by the source): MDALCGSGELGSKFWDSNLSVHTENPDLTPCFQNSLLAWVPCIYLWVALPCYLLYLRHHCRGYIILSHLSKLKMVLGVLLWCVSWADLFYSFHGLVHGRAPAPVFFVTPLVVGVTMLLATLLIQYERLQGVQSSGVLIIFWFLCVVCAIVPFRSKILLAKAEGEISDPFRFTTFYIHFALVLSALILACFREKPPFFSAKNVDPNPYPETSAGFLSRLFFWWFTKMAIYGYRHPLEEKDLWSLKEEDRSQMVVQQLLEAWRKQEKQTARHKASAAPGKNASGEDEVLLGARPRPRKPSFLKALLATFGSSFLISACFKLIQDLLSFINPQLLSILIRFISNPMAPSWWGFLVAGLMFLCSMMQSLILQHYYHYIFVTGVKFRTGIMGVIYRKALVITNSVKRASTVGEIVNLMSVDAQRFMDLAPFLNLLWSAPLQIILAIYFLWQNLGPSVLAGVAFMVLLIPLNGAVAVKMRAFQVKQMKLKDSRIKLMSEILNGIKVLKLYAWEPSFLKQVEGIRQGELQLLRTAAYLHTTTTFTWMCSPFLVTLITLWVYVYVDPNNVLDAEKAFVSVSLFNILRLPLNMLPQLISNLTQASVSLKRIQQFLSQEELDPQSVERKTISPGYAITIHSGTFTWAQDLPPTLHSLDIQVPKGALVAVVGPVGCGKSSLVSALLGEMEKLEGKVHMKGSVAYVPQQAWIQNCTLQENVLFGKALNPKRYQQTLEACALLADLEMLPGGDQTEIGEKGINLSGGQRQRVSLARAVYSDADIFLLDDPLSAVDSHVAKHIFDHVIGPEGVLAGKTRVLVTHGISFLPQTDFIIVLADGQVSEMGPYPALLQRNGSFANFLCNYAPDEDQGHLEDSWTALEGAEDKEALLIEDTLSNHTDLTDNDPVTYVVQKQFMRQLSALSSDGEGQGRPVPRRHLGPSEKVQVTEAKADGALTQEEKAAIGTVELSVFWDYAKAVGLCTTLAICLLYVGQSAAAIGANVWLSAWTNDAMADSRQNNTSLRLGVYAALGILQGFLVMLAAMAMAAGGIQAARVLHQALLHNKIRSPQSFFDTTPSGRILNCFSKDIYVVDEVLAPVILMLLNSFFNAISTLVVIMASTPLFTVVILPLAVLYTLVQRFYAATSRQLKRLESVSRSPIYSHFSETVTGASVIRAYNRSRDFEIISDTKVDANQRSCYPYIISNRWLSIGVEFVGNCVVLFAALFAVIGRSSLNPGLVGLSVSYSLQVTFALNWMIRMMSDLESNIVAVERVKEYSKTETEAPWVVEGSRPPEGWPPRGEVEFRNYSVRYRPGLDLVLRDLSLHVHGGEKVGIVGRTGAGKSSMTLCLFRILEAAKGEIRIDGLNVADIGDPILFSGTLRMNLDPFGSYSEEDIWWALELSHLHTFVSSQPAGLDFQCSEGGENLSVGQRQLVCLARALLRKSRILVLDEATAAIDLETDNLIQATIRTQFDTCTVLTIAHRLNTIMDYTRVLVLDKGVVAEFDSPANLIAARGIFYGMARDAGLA
Data set [2] has as its target T1, ATP-binding cassette sub-family C member 4 (Homo sapiens, UniProt O15439).
T1 sequence (O15439 whole entry): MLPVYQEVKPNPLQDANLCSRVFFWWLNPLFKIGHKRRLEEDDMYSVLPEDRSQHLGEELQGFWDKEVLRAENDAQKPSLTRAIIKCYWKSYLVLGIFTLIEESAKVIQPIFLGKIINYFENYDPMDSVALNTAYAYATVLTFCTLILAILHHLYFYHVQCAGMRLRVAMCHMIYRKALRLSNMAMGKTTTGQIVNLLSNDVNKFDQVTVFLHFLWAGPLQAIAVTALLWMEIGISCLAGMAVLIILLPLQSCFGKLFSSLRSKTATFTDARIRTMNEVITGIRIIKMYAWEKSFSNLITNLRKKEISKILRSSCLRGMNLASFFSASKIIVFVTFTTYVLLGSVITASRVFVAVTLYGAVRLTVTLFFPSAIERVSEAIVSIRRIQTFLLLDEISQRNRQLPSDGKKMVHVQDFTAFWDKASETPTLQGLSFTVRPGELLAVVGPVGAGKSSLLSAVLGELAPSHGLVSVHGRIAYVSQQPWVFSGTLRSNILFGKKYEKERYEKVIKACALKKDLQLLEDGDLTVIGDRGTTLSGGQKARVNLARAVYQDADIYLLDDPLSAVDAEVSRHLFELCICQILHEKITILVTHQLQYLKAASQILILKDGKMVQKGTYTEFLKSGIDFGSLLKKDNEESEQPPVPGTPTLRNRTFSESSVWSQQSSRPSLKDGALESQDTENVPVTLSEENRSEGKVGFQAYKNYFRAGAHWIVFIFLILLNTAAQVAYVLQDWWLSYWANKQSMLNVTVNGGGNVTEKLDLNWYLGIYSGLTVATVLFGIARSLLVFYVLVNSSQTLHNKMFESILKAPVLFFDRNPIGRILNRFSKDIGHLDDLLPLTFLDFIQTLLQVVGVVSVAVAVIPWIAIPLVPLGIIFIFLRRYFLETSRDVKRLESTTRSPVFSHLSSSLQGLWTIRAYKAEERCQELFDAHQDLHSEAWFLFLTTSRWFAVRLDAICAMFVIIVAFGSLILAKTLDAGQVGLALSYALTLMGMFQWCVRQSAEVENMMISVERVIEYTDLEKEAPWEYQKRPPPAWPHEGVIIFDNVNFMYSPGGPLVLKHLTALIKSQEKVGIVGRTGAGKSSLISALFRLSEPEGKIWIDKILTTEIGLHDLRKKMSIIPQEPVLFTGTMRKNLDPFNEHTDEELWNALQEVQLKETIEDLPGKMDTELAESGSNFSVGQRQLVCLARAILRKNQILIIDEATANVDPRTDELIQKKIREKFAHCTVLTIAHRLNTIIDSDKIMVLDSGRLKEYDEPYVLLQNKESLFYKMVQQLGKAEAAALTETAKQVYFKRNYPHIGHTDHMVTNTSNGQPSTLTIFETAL
Nature of the data set: TP_TRANSPORTER: inhibition of alaninyl-d4TMP in the presence of Prostaglandin A1 at a concentration of 20uM in membrane vesicles from MRP4-expressing Sf9 cells. The class given is functional, cell membranes, Membrane vesicle. The arrangement: scale not given: the % may be the effect or the level left. Conditions: sf9, 20 µM.

Data set [3] deals with T2, MRP5 (ATP-binding cassette sub-family C member 5) (Homo sapiens, UniProt O15440). As to the kind of experiment: TP_TRANSPORTER: inhibition of alaninyl-d4TMP by Prostaglandin A1 at a concentration of 20uM in membrane vesicle from MRP5-expressing HEK293 cells. It is filed as functional, cell membranes. The arrangement: scale not given: the % may be the effect or the level left. Conditions: probe alaninyl-d4TMP, read-out: Activity.
T2 sequence (O15440 whole entry): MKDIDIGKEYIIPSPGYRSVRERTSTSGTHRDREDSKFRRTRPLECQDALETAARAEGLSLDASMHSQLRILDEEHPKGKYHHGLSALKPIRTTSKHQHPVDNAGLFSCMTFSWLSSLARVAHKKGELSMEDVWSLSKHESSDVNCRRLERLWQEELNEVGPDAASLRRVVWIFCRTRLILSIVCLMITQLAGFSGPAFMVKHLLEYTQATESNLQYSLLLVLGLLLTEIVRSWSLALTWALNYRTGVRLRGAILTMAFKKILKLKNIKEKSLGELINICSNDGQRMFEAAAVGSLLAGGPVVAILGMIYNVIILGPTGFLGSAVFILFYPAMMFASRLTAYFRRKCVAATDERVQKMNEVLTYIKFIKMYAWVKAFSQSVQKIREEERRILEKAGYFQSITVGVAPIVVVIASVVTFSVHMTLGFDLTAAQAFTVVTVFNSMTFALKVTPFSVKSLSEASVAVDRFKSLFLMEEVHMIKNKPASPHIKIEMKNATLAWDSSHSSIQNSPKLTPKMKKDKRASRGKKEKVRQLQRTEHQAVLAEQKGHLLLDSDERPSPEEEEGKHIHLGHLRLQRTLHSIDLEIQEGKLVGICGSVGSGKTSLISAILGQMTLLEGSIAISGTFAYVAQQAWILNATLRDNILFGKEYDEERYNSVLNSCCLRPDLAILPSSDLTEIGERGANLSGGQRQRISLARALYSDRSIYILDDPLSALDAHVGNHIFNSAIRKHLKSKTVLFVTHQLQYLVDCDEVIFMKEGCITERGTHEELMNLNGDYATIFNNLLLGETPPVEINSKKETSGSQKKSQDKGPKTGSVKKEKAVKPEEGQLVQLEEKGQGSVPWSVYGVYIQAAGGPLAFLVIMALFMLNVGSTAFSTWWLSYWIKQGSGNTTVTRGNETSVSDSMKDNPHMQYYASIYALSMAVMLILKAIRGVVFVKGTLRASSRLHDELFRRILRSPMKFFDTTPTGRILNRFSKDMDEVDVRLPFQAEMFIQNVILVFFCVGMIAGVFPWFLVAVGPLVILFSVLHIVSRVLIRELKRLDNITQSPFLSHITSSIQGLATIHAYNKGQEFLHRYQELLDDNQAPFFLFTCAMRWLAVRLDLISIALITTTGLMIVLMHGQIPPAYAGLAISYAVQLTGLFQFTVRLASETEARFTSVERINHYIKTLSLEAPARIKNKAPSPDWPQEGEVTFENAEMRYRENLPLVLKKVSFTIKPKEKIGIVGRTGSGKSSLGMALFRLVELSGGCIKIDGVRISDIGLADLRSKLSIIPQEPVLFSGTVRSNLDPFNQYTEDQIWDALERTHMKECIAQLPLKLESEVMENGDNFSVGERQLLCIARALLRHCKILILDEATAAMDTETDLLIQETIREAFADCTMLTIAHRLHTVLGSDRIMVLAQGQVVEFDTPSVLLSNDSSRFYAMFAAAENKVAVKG

The target of data set [4] is T3, MRP4 (ATP-binding cassette sub-family C member 4) (Homo sapiens, UniProt O15439).
T3 sequence (O15439 whole entry): T1 sequence (O15439 whole entry)
As to the kind of experiment: TP_TRANSPORTER: inhibition of E217betaG in the presence of Indoprofen at a concentration of 50uM in membrane vesicles from MRP4-expressing Sf9 cells. It is filed as functional, cell membranes, Membrane vesicle. Also noted: scale not given: the % may be the effect or the level left. As to conditions: probe E217betaG, read-out: Activity.

The target of data set [5] is T1, ATP-binding cassette sub-family C member 4. Nature of the data set: TP_TRANSPORTER: inhibition of E217betaG in the presence of Flurbiprofen at a concentration of 50uM in membrane vesicles from MRP4-expressing Sf9 cells. It is filed as functional, cell membranes, Membrane vesicle. Also noted: scale not given: the % may be the effect or the level left. Conditions: sf9, 50 µM.

The target in data set [6] is T2, MRP5 (ATP-binding cassette sub-family C member 5). Nature of the data set: TP_TRANSPORTER: inhibition of alaninyl-d4TMP by Prostaglandin F2alpha at a concentration of 20uM in membrane vesicle from MRP5-expressing HEK293 cells. It is filed as functional, cell membranes. Also noted: scale not given: the % may be the effect or the level left. Conditions: membrane vesicles from MRP5-expressing HEK293 cells, probe alaninyl-d4TMP, read-out: Activity.

The target of data set [7] is T1, ATP-binding cassette sub-family C member 4. As to the kind of experiment: TP_TRANSPORTER: inhibition of alaninyl-d4TMP in the presence of Prostaglandin F2alpha at a concentration of 20uM in membrane vesicles from MRP4-expressing Sf9 cells. Conditions: sf9, 20 µM. Also noted: scale not given: the % may be the effect or the level left. It is filed as functional, cell membranes, Membrane vesicle.

Data set [8] deals with Multidrug resistance-associated protein 1 (Homo sapiens, UniProt P33527). Nature of the data set: TP_TRANSPORTER: inhibition of E217betaG in the presence of Diclofenac at a concentration of 100uM in membrane vesicles from MRP1-expressing Sf9 cells. Also noted: scale not given: the % may be the effect or the level left. The class given is functional, cell membranes, Membrane vesicle. As to conditions: sf9, 100 µM.
Multidrug resistance-associated protein 1, sequence (P33527 whole entry): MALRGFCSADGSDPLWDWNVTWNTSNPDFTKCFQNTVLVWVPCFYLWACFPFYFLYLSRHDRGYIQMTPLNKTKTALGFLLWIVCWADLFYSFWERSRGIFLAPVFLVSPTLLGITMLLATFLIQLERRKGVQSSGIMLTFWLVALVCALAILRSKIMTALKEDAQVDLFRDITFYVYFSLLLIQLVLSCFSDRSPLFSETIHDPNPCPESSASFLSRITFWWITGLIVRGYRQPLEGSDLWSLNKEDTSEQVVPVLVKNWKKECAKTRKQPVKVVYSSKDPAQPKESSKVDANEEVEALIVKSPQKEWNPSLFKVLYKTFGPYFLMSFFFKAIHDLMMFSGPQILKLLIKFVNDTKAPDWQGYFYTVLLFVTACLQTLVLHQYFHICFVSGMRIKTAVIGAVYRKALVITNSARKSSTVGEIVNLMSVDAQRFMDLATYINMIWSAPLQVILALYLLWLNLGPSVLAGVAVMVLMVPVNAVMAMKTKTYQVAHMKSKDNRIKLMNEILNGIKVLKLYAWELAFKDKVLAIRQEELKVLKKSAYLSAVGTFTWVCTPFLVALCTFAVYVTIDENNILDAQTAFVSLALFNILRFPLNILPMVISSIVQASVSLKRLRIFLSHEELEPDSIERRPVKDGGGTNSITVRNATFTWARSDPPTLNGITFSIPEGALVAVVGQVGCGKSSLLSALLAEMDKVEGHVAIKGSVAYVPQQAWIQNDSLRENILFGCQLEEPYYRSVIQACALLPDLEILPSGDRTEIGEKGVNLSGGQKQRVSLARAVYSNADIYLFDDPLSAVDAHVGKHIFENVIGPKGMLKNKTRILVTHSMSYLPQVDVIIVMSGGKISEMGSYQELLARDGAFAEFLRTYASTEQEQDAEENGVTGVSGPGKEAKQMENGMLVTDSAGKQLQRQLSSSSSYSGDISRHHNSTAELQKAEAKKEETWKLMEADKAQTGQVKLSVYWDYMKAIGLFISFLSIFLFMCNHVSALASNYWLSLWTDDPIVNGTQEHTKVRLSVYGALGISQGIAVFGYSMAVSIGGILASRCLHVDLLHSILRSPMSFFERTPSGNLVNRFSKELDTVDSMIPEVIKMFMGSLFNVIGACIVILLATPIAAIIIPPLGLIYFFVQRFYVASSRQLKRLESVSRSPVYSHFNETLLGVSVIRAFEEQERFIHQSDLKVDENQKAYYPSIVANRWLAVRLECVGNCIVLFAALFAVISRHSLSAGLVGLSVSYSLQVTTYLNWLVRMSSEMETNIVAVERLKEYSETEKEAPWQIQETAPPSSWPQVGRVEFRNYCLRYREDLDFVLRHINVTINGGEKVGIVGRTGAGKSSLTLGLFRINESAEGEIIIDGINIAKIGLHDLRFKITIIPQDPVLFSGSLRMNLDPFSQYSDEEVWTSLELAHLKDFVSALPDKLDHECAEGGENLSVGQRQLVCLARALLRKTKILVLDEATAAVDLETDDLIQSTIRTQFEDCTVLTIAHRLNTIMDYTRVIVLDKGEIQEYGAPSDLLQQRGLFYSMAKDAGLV

Data set [9] concerns the target T3, MRP4 (ATP-binding cassette sub-family C member 4). As to the kind of experiment: TP_TRANSPORTER: inhibition of E217betaG in the presence of Diclofenac at a concentration of 100uM in membrane vesicles from MRP4-expressing Sf9 cells. Also noted: scale not given: the % may be the effect or the level left. Conditions: probe E217betaG, read-out: Activity. It is filed as functional, cell membranes, Membrane vesicle.

Data set [10] deals with MRP1 (Multidrug resistance-associated protein 1) (Homo sapiens, UniProt P33527). As to the kind of experiment: TP_TRANSPORTER: inhibition of E217betaG in the presence of Ibuprofen at a concentration of 200uM in membrane vesicles from MRP1-expressing Sf9 cells. Also noted: scale not given: the % may be the effect or the level left. The class given is functional, cell membranes, Membrane vesicle. Conditions: probe E217betaG, read-out: Activity.
MRP1 (Multidrug resistance-associated protein 1), sequence (P33527 whole entry): as above

For data set [11], the target named is T1, ATP-binding cassette sub-family C member 4. As to the kind of experiment: TP_TRANSPORTER: inhibition of E217betaG in the presence of Ibuprofen at a concentration of 200uM in membrane vesicles from MRP4-expressing Sf9 cells. The class given is functional, cell membranes, Membrane vesicle. The arrangement: scale not given: the % may be the effect or the level left. Conditions: sf9, 200 µM.

Data set [12] deals with T2, MRP5 (ATP-binding cassette sub-family C member 5). Nature of the data set: TP_TRANSPORTER: inhibition of alaninyl-d4TMP by Prostaglandin E2 at a concentration of 20uM in membrane vesicle from MRP5-expressing HEK293 cells. The class given is functional, cell membranes. Also noted: scale not given: the % may be the effect or the level left. As to conditions: membrane vesicles from MRP5-expressing HEK293 cells, probe alaninyl-d4TMP, read-out: Activity.

Substrate in data set [13]: CCCCC[C@H](O)/C=C/[C@H]1[C@H](O)CC(=O)[C@@H]1C/C=C\CCCC(=O)O
Nature of the data set: (§1) TP_TRANSPORTER: uptake (vesicle) in membrane vesicles from MRP4-expressing Sf9 cells. The class given is functional, cell membranes.

Substrate in data set [14]: CCCCC[C@H](O)/C=C/[C@H]1[C@H](O)CC(=O)[C@@H]1CCCCCCC(=O)O
The data set is described as §1. It is filed as functional, cell membranes.

In the case of `CCCCC[C@H](O)/C=C/[C@H]1C=CC(=O)[C@@H]1CCCCCCC(=O)O` [PROSTAGLANDIN A1], the Activity in [1] was 76%; in data set [2], 2%. Besides, in data set [3], the activity at 20 µM is 51%.

As for `CC(C(=O)O)c1ccc(N2Cc3ccccc3C2=O)cc1` (centres undefined) [INDOPROFEN], in data set [4], the activity at 50 µM is 17%.

With `CC(C(=O)O)c1ccc(-c2ccccc2)c(F)c1` (centres undefined) [FLURBIPROFEN], in [5], the Activity stood at 23%.

Turning to `CCCCC[C@H](O)/C=C/[C@@H]1[C@@H](C/C=C\CCCC(=O)O)[C@@H](O)C[C@H]1O` [DINOPROST], in data set [6], the activity at 20 µM was 63%. The Activity in data set [7] is 15%.

Consider `O=C(O)Cc1ccccc1Nc1c(Cl)cccc1Cl` [DICLOFENAC], for which the Activity in data set [8] was 82%. Further, the activity at 100 µM in data set [9] is 61%.

`CC(C)Cc1ccc(C(C)C(=O)O)cc1` (centres undefined) [IBUPROFEN]: the activity at 200 µM in [10] turned out to be 79%. Also, the Activity in data set [11] came to 31%.

`CCCCC[C@H](O)/C=C/[C@H]1[C@H](O)CC(=O)[C@@H]1C/C=C\CCCC(=O)O` [DINOPROSTONE]: the activity at 20 µM in data set [12] was found to be 74%.

B1: ATP-binding cassette sub-family C member 4 (Homo sapiens) (protein)
chain: T1 sequence (O15439 whole entry)
For the molecule B1, the figures for the Km in data set [13] and in data set [14] were 3.4 µM and 2.1 µM, respectively.

The term Km denotes the concentration of substrate that gives half-maximal velocity.
